Measured values: patent US8476197B2, “Aminopropenoates as fungicides” (priority 2009, dated 2013)
Marks after values point to notes of the source that are not given here.

settings: pH 2.3

SMILES	Log P
COC(=O)C(C#N)=C(NCC1OCCO1)c1cccnc1Cl [Compound 14]	1.79

same assay, conditions: pH 2.7

SMILES	Log P
CCOC(=O)C(C#N)=C(NC(C)c1ccn(C)n1)c1cccnc1C(F)F (racemic) [Compound 263]	2.18^[a]
C#CC(C)(C)NC(=C(C#N)C(=O)OCC)c1cn(C)nc1C=C [Compound 1035]	2.54^[a]
CCOC(=O)C(C#N)=C(NC(C)C(=O)OCC)c1sc(C)nc1C(F)(F)F (racemic) [Compound 679]	3.29^[a]
CCC(C)NC(=C(C#N)C(=O)OC)c1cccnc1Cl (stereo not drawn) [Compound 826]	2.55^[a]
CCOC(=O)C(C#N)=C(NC(C)C(=O)Nc1ccc2ccccc2c1)c1cccnc1Cl (stereo not drawn) [Compound 1193]	3.51^[a]
CCOC(=O)C(C#N)=C(NC(C)c1ncc(C)s1)c1sccc1C(F)(F)F (stereo not drawn) [Compound 216]	3.67^[a]
CCOC(=O)C(C#N)=C(NC(C)C(N)=O)c1sccc1Br (stereo not drawn) [Compound 652]	1.94^[a]
CCOC(=O)C(C#N)=C(NC(C)C(C)C)c1ccnn1C(F)F (stereo not drawn) [Compound 1645]	3.27^[a]
CCOC(=O)C(C#N)=C(NC(C)CN(C)C)c1sc(C)nc1C(F)(F)F (stereo not drawn) [Compound 640]	1.35^[a]
CCOC(=O)C(C#N)=C(NC(C)CCc1ccccc1)c1cn(C)nc1C(F)F (mixture of isomers) [Compound 453]	3.62^[a]
CCC1CCCCC1NC(=C(C#N)C(=O)OC)c1cccnc1Cl (stereo not drawn) [Compound 1061]	3.63^[a]
CCOc1ccc(C(C)NC(=C(C#N)C(=O)OC)c2cccnc2Cl)cc1 (stereo not drawn) [Compound 378]	3.02^[a]
CC(NC(=C(C#N)C(=O)N(C)C)c1cn(C)nc1C(F)F)c1ccccn1 (stereo not drawn) [Compound 1295]	1.59^[a]
COC(=O)C(C#N)=C(NC(C)Cc1ccccc1)c1cccnc1Cl (stereo not drawn) [Compound 426]	2.98^[a]
COC(=O)C(C#N)=C(NC(C)(C)c1c(F)cccc1F)c1cccnc1Cl [Compound 385]	2.98^[a]
CCOC(=O)C(C#N)=C(NC(C)C1CC1)c1ccnc2ccccc12 (racemic) [Compound 1500]	3.02^[a]
C#CC(C)(C)NC(=C(C#N)C(=O)OCC)c1sccc1Cl [Compound 1032]	3.41^[a]
CCOC(=O)C(C#N)=C(NC1CC1C)c1cn(C)nc1C(F)F (stereo not drawn) [Compound 1130]	2.68^[a]
CCOC(=O)C(C#N)=C(NC(C)c1ccc(F)cc1)c1sccc1C(F)(F)F (mixture of isomers) [Compound 438]	4.14^[a]
CCOC(=O)C(C#N)=C(NC(C(=O)OC)C(C)C)c1sccc1Br (stereo not drawn) [Compound 650]	3.67^[a]
CCOC(=O)C(C#N)=C(NC1CCCC1OC)c1cccnc1Cl (stereo not drawn) [Compound 1432]	2.96^[a]

SMILES	Log P
CCOC(=O)C(C#N)=C(NC(C)c1nc(C(F)(F)F)no1)c1cc(Cl)ncc1Cl (racemic) [Compound 254]	3.83^[a]
CCOC(=O)C(C#N)=C(NC(C)(C)C#Cc1ccc(C#N)cc1)c1ccsc1Br [Compound 1094]	4.21^[a]
CCOC(=O)C(C#N)=C(NC(C)C(C)(C)C)c1ccsc1Br (racemic) [Compound 923]	4.36^[a]
CCOC(=O)/C(C#N)=C(\NCC(C)N)c1sc(C)nc1C(F)(F)F (stereo not drawn) [Compound 643]	1.11^[a]
CCOC(=O)C(C#N)=C(NC(C)c1nc(C)c(C)s1)c1cn(C)nc1C(F)(F)F (stereo not drawn) [Compound 64]	3.48^[a]
COC(=O)C(C#N)=C(NC1CCC1)c1cccnc1Cl [Compound 793]	2.34^[a]
CCOC(=O)C(C#N)=C(NC(C)CN1CCCC1)c1cccnc1Cl (mixture of isomers) [Compound 283]	3.35^[a]
CCOC(=O)C(C#N)=C(NCc1nccs1)c1sc(C)nc1C(F)(F)F [Compound 141]	2.66^[a]
CCOC(=O)C(C#N)=C(NC(C)C(C)C)c1c(C(F)F)nn(C)c1F (racemic) [Compound 1000]	3.53^[a]
CCOC(=O)C(C#N)=C(NC1CSC1)c1cn(C)nc1C(F)F [Compound 1355]	2.54^[a]
CCOC(=O)C(C#N)=C(NC(C)COC)c1ccnc(Cl)c1Cl (stereo not drawn) [Compound 1392]	3.06^[a]
CCOC(=O)C(C#N)=C(NC1CCC(OCC)CC1)c1cn(C)nc1C(F)F (stereo not drawn) [Compound 1337]	3.08^[a]
C=CCCCC(C=C)NC(=C(C#N)C(=O)OCC)c1sccc1Br (racemic) [Compound 1017]	4.67^[a]
CCOC(=O)C(C#N)=C(Nc1ccc(C(C)C)cc1)c1ccsc1Br [Compound 536]	4.78^[a]
CCOC(=O)C(C#N)=C(NC(C)c1ccccn1)c1cn(C)nc1C (stereo not drawn) [Compound 1204]	1.99^[a]
CCOC(=O)C(C#N)=C(NC(C)Cc1c[nH]c2ccccc12)c1sccc1Br (stereo not drawn) [Compound 91]	3.8^[a]
CCOC(=O)C(C#N)=C(NCc1ccc(F)cn1)c1sccc1C(F)(F)F [Compound 201]	3.19^[a]
CCOC(=O)C(C#N)=C(NC(C)COc1c(C)cccc1C)c1ccsc1Br (stereo not drawn) [Compound 718]	4.86^[a]
CCNC(=O)C(C#N)=C(NC(C)c1ccccn1)c1ccnc(Cl)c1F (stereo not drawn) [Compound 1329]	2.5^[a]
CCOC(=O)C(C#N)=C(NC(C)c1ccc(Cl)cc1)c1sc(Cl)nc1Cl (racemic) [Compound 526]	4.54^[a]
CCOC(=O)C(C#N)=C(NC(C)c1cccc(OC)c1)c1cn(C)nc1C(F)F (stereo not drawn) [Compound 1225]	3.21^[a]

SMILES	Log P
CCOC(=O)C(C#N)=C(NC(C)c1c(C)cccc1C)c1cccnc1Cl (stereo not drawn) [Compound 1534]	3.96^[a]
CCOC(=O)C(C#N)=C(NC(C)c1nc(C)cs1)c1cn(C)nc1C(F)F (stereo not drawn) [Compound 188]	2.65^[a]
CCOC(=O)C(C#N)=C(NC1CCC1C)c1cccnc1Cl (stereo not drawn) [Compound 1065]	3.37^[a]
CCOC(=O)C(C#N)=C(NCc1nccs1)c1ccncc1Cl [Compound 259]	2.11^[a]
CCOC(=O)C(C#N)=C(NC(C)C)c1cn(C)nc1C(F)F [Compound 1419]	2.53^[a]
COC(=O)C(C#N)=C(NC1CSC1)c1cccnc1Cl [Compound 122]	2.08^[a]
CCOC(=O)C(C#N)=C(NC(C)C(N)=O)c1ncc(C(F)(F)F)cc1Cl (racemic) [Compound 592]	2.17^[a]
CCOC(=O)C(C#N)=C(NC(C)C(=O)NC)c1cc(Cl)ncc1Cl (stereo not drawn) [Compound 720]	2.19^[a]
CCC(C)OC(=O)C1(NC(=C(C#N)C(=O)OC)c2cccnc2Cl)CC1 (stereo not drawn) [Compound 621]	2.23^[a]
CCOC(=O)C(C#N)=C(NC(C)CN(C)C)c1cn(C)nc1C(F)F (racemic) [Compound 578]	1.13^[a]
CCOC(=O)C(C#N)=C(Nc1ccc(C(C)C)cc1)c1sccc1C(F)(F)F [Compound 481]	4.75^[a]
CCOC(=O)C(C#N)=C(NC(C)c1ccccn1)c1ccnc(Br)c1Cl (racemic) [Compound 1391]	3.09^[a]
COC(=O)C(C#N)=C(NC(C)c1cccc(OC)c1)c1cccnc1Cl (stereo not drawn) [Compound 377]	2.89^[a]
CCOC(=O)C(C#N)=C(NC(C)c1ccc(C(C)C)cc1)c1cn(C)nc1C(F)F (racemic) [Compound 550]	4.2^[a]
CCOC(=O)C(C#N)=C(NC(C)C(C)C)c1cn(C)nc1C (stereo not drawn) [Compound 1203]	2.8^[a]
CCOC(=O)C(C#N)=C(Nc1cccc(Cl)c1)c1cn(C)nc1C(F)F [Compound 477]	3.21^[a]
CCOC(=O)C(C#N)=C(NC(C)CCc1ccccc1)c1sccc1Br (mixture of isomers) [Compound 445]	4.51^[a]
CCCCCC(C)NC(=C(C#N)C(=O)OCC)c1sccc1C(F)(F)F (stereo not drawn) [Compound 847]	5.05^[a]
CCOC(=O)C(C#N)=C(NC(C(=O)OCC)c1ccccc1)c1cn(C)nc1C(F)F (stereo not drawn) [Compound 1349]	3.25^[a]
CCNC(=O)C(C#N)=C(NC(C)C(C)C)c1ccnc(Br)c1F (stereo not drawn) [Compound 1323]	3.46^[a]
CCOC(=O)C(C#N)=C(NC(C)C(C)C)c1nsc(Cl)c1Cl (stereo not drawn) [Compound 937]	4.39^[a]

same assay, conditions: pH 7.5

SMILES	Log P
CCOC(=O)C(C#N)=C(NC(C)CC#N)c1cccnc1Cl (stereo not drawn) [Compound 792]	2.13
CCCCCC(C)NC(=C(C#N)C(=O)OCC)c1cccnc1Cl (racemic) [Compound 859]	4.1
COC(=O)C(C#N)=C(NCC1OCCO1)c1cccnc1Cl [Compound 14]	1.77
CC(NC(=C(C#N)C(=O)OC(C)C(F)(F)F)c1cccnc1Cl)c1nccs1 (mixture of isomers) [Compound 56]	2.94
COC(=O)C(C#N)=C(NC(C)c1sc(C)nc1C)c1cccnc1Cl (stereo not drawn) [Compound 26]	2.17
CCOC(=O)C(C#N)=C(NC(C)c1nc(C(=O)O)cs1)c1cccnc1Cl (stereo not drawn) [Compound 244]	1.1
CCOC(=O)C(C#N)=C(NC(C)c1ccc(Cl)cc1)c1cccnc1Cl (stereo not drawn) [Compound 342]	3.61
CCOC(=O)C(C#N)=C(NC(C)c1nc(C(=O)OCC)cs1)c1cccnc1Cl (stereo not drawn) [Compound 241]	2.7
CCOC(=O)C(C#N)=C(NC(C)CSC#N)c1cccnc1Cl (stereo not drawn) [Compound 1109]	2.35
CCOC(=O)C(C#N)=C(NC1CCCCC1O)c1cccnc1Cl (mixture of isomers) [Compound 1064]	2.27
CCOC(=O)C(C#N)=C(NC(C)CCc1c(Cl)cccc1Cl)c1cccnc1Cl (mixture of isomers) [Compound 429]	4.62
